Some test systems named below: RXF 393 renal; SK-MEL-5 melanoma; DLD-1 colon; NCI-H522 lung; COLO 205 colon; M19-MEL melanoma; RPMI-8226 leukemia; DMS 273 small cell lung; LXFL 529 NSCLC; HCT-15 colon; KM20L2 colon; SF-268 CNS; PC-3 prostate; T-47D breast; BT-549 breast; MCF7 breast.
What all share (assay): NCI tumour cell line growth inhibition, 48 h

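Dose response: 5 concentrations. Exposure: 48 h. Format: 96-well plates. Endpoint: linear interpolation; highest concentration if not reached. Definition used: TGI = concentration required for complete inhibition of growth.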 A value given as a limit tells only on which side of the number the result lay.

In the case of `Cc1cc(C)c(N)c(C)c1N`, the TGI with RXF 393 renal, in the assay on SK-MEL-5 melanoma, in the assay with DLD-1 colon, in the assay on NCI-H522 lung, with COLO 205 colon and in the assay on M19-MEL melanoma was more than 100 µM throughout. The TGI in the assay on RPMI-8226 leukemia, in the assay with DMS 273 small cell lung, in the assay on LXFL 529 NSCLC, in the assay with HCT-15 colon, in the assay on KM20L2 colon and with SF-268 CNS was more than 100 µM in each case.
As to `CCOC(=O)CC(=Nc1cc(C)on1)N(CC)CC`, the TGI in the assay with SK-MEL-5 melanoma, with DLD-1 colon, in the assay on NCI-H522 lung, in the assay with COLO 205 colon, in the assay with M19-MEL melanoma and in the assay with RPMI-8226 leukemia was more than 100 µM throughout. Further, the TGI in the assay with DMS 273 small cell lung, with LXFL 529 NSCLC, in the assay on HCT-15 colon, in the assay with KM20L2 colon and with SF-268 CNS was more than 100 µM each time.
On to `[N-]=[N+]=NC(c1cn(C2CC(O)C(CO)O2)c(=O)[nH]c1=O)C(I)I` (stereo not given), for which the TGI with RXF 393 renal, in the assay with SK-MEL-5 melanoma, with DLD-1 colon, in the assay on COLO 205 colon, in the assay with M19-MEL melanoma and in the assay with RPMI-8226 leukemia was more than 100 µM each time. Moreover, the TGI in the assay with DMS 273 small cell lung, with LXFL 529 NSCLC, in the assay with KM20L2 colon and in the assay with SF-268 CNS was more than 100 µM each time.
Take `Nc1nc(SCc2ccccc2[N+](=O)[O-])c2[nH]cnc2n1`: the TGI with RXF 393 renal was more than 94 µM; with SK-MEL-5 melanoma, 49.1 µM; with DLD-1 colon, more than 100 µM; in the assay with NCI-H522 lung, more than 67.5 µM; with COLO 205 colon it was more than 71.7 µM; with M19-MEL melanoma it was more than 100 µM. The TGI was more than 100 µM in the assay with RPMI-8226 leukemia; more than 100 µM in the assay on PC-3 prostate; 74.1 µM in the assay with T-47D breast; more than 100 µM with DMS 273 small cell lung; more than 100 µM with LXFL 529 NSCLC; more than 100 µM in the assay with BT-549 breast. For the same compound, the TGI is more than 100 µM with HCT-15 colon, more than 100 µM in the assay with KM20L2 colon, more than 100 µM in the assay with MCF7 breast and more than 84.6 µM in the assay with SF-268 CNS.
Turning to `Cc1ccc(C(=O)NC(C)C)cc1N=NN(C)C`, the TGI in the assay on SK-MEL-5 melanoma, in the assay with DLD-1 colon, in the assay on NCI-H522 lung, in the assay on M19-MEL melanoma, with DMS 273 small cell lung and in the assay with LXFL 529 NSCLC was more than 100 µM in each case. The TGI in the assay on HCT-15 colon, in the assay with KM20L2 colon and in the assay on SF-268 CNS was more than 100 µM throughout.
As for `CC[S+](C)c1ccc(-c2c3nc(c(-c4ccc([S+](C)CC)cc4)c4ccc([nH]4)c(-c4ccc([S+](C)CC)cc4)c4nc(c(-c5ccc([S+](C)CC)cc5)c5ccc2[nH]5)C=C4)C=C3)cc1` (stereo not given), the TGI in the assay with RXF 393 renal was 63.3 µM; in the assay on SK-MEL-5 melanoma, more than 100 µM; in the assay on NCI-H522 lung, more than 100 µM; in the assay on COLO 205 colon, more than 100 µM; with M19-MEL melanoma, more than 100 µM; with RPMI-8226 leukemia, 41 µM. The TGI with DMS 273 small cell lung, with LXFL 529 NSCLC, in the assay with HCT-15 colon, in the assay with KM20L2 colon and with SF-268 CNS was more than 100 µM throughout.
Take `CCc1c(-c2coc(CC/C(C)=C/c3ccccc3)n2)oc(OC)c(C)c1=O`: the TGI is more than 46.9 µM in the assay on SK-MEL-5 melanoma; more than 65.6 µM in the assay on DLD-1 colon; 15.3 µM in the assay on NCI-H522 lung; more than 47.8 µM with COLO 205 colon; more than 100 µM in the assay on M19-MEL melanoma; more than 100 µM in the assay on RPMI-8226 leukemia. Also, the TGI with DMS 273 small cell lung was more than 54.7 µM; with LXFL 529 NSCLC it was more than 55.5 µM; in the assay with HCT-15 colon, more than 55.5 µM; in the assay with KM20L2 colon, more than 54.6 µM; in the assay on SF-268 CNS, more than 100 µM.

For the origin of these results see PubChem BioAssay (NCI).
